Results reported in patent US12187721B2, “Protein tyrosine phosphatase inhibitors” (Array BioPharma Inc., priority 2018, dated 2025).
Structures can show the parent of a compound that is named as a salt. Where two headings read alike, the source gives them in different places.

How the values were obtained:
[1] = tested on: ERK1/2 (Thr202/Tyr204) phosphorylation in KYSE520 cells; assay: Cellular Phospho-p44/42 MAPK (Erk 1/2) (Thr202/Tyr204) Assay (In-Cell Western); type: cell-based; details: Homo sapiens, KYSE-520, 1 h, read-out: Biological Example 2 IC50 (nM)
Protocol: KYSE520 cells were obtained from DSMZ and grown in RPMI supplemented with 10% fetal bovine serum, pennicillin/streptomycin, 2 mM L-alanyl-L-glutamine dipeptide in 0.85% NaCl (Glutamax™), non-essential amino acids, and sodium pyruvate. Cells were plated in 96-well plates at 30,000 cells/well and allowed to attach overnight at 37° C./5% CO2. Cells were treated with compounds prepared as a 10-point, 1:3 dilution series (range: 20 μM-1 nM), with a final DMSO concentration of 0.5%. After 1 hour incubation, cells were fixed in 3.7% formaldehyde in Dulbecco's phosphate-buffered saline (“dPBS”) at room temperature for 20 minutes. Cells were then washed with dPBS and permeabilized in 100% MeOH at room temperature for 10 minutes. Following permeabilization, cells were washed in dPBS and incubated in LI-COR Blocking Buffer (LI-COR Biosciences, Cat #927-40000) for 1 hour or longer. Plates were then incubated with an antibody specific for the MEK-dependent ERK1/2 phosphorylation sites, threonine 202 and tyrosine 204 (Cell Signaling Technologies; Cat #9101), downstream of SHP2 in the MAP kinase signal transduction pathway, as well as GAPDH (Millipore; Cat #MAB374). pErk1/2 (Thr202/Tyr204) antibody was diluted in LI-COR blocking buffer containing 0.05% polysorbate-20 (Tween-20) at 1:250; GAPDH was diluted at 1:2,500. The plates were incubated overnight at 4° C. After washing with PBS/0.05% Tween-20, the cells were incubated with fluorescently-labeled secondary antibodies (Anti-rabbit-Alexa Flour680, Invitrogen Cat #A21109; Anti-mouse-IRDye800CW, Li-cor Bioscieces Cat #926-32210, both at 1:1000 dilution) for 1 hour. Cells were then washed, as above, and analyzed for fluorescence at both 680 nm and 800 nm wavelengths using the Aerius Infrared Imaging System (LI-COR Biosciences, Model 9250). Phosphorylated Erk1/2 (Thr202/Tyr204) signal was normalized to GAPDH signal for each well. IC50 values were calculated from the normalized values using a 4-parameter fit in BioAssay software. […] The reported IC50 in Table 2 may be from a single assay or the mean of multiple assays.

[2] = biological target: T1, full-length SHP2 (His6-tagged SHP2(2-527)) (Homo sapiens, UniProt Q06124); assay: SHP2 Enzymatic Assay (fluorescence intensity kinetic assay, DiFMUP hydrolysis); type: biochemical
T1 construct: His6-tagged SHP2(2-527); His6; made in house; host or cells: E. coli
Method in brief: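 1 nM His6-SHP2(2-527), activated by 1 μM bis-phosphopeptide, hydrolysed 50 μM DiFMUP in 25 mM HEPES pH 7.4 with 1 mM DTT, 50 mM KCl and 2% DMSO. DiFMU fluorescence (Ex 355/Em 460 nm) was read kinetically for 15 min at ambient temperature.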

[3] = full-length SHP2 with 1 μM activating peptide, 50 μM DiFMUP, single assay or mean of multiple assays, read-out: Biological Example 1 IC50

T1 sequence (Q06124 2-527): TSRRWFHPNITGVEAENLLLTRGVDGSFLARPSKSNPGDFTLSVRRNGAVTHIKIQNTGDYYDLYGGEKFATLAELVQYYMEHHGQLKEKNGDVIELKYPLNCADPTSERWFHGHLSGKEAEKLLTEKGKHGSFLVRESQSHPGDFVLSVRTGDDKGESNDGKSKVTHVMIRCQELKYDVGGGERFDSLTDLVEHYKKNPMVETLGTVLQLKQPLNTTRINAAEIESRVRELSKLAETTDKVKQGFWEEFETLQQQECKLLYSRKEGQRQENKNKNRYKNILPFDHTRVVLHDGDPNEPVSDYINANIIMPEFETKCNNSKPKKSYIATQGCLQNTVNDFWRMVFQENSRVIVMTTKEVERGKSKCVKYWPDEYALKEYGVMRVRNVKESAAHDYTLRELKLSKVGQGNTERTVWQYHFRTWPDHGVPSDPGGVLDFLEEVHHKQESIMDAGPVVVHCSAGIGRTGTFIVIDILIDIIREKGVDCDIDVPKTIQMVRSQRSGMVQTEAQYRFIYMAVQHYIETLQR

Row | SMILES | IC50 [1] | IC50 [2] | IC50 [2, 3]
1 | CNc1nccc(Sc2ccc3nc(N4CCC5(CC4)CO[C@@H](C)[C@H]5N)cnc3n2)c1Cl [Example 33, (3S,4S)-8-(6-((3-chloro-2-(methylamino)pyridin-4-yl)thio)pyrido[2,3-b]pyrazin-2-yl)-3-methyl-2-oxa-8-azaspiro[4.5]decan-4-amine] | 80 nM | 100 nM | 
2 | Cc1nccc(Sc2ccc3nc(N4[C@H]5CC[C@H]4CC(N)C5)cnc3n2)c1Cl (stereo partly drawn) [Example 67, (1R,3s,5S)-8-(6-((3-chloro-2-methylpyridin-4-yl)thio)pyrido[2,3-b]pyrazin-2-yl)-8-azabicyclo[3.2.1]octan-3-amine dihydrochloride] | 48 nM | 42 nM | 
3 | Nc1nccc(Sc2ccc3nc(N4CC5CC(C4)N5)cnc3n2)c1Cl [Example 200, 4-((2-(3,6-diazabicyclo[3.1.1]heptan-3-yl)pyrido[2,3-b]pyrazin-6-yl)thio)-3-chloropyridin-2-amine] | 122 nM | 48 nM | 
4 | CN[C@H]1CCCN(c2cnc3nc(Sc4ccnc(N)c4Cl)ccc3n2)CC1 [Example 91, (S)-1-(6-((2-amino-3-chloropyridin-4-yl)thio)pyrido[2,3-b]pyrazin-2-yl)-N-methylazepan-4-amine] | 317 nM | 106 nM | 
5 | Nc1nccc(Sc2ccc3nc(N4CCC5(CC4)Cc4ncccc4[C@H]5N)cnc3n2)c1Cl [Example 125, (S)-1′-(6-((2-amino-3-chloropyridin-4-yl)thio)pyrido[2,3-b]pyrazin-2-yl)-5,7-dihydrospiro[cyclopenta[b]pyridine-6,4′-piperidin]-5-amine] | 5 nM |  | 38 nM
6 | Nc1nccc(Sc2ccc3nc(N4CCC[C@@H](N)CC4)cnc3n2)c1Cl [Example 41, (R)-1-(6-((2-amino-3-chloropyridin-4-yl)thio)pyrido[2,3-b]pyrazin-2-yl)azepan-4-amine] | 110 nM | 56 nM | 
7 | CC1(N)CCN(c2cnc3nc(Sc4ccnc(N)c4Cl)ccc3n2)CC1 [Example 1, 4-((2-(4-amino-4-methylpiperidin-1-yl)pyrido[2,3-b]pyrazin-6-yl)thio)-3-chloropyridin-2-amine] | 59 nM |  | 33 nM
8 | Cc1ccc2c(c1)[C@@H](N)C1(CCN(c3cnc4nc(Sc5ccnc(N)c5Cl)ccc4n3)CC1)C2 [Example 178, (S)-1′-(6-((2-amino-3-chloropyridin-4-yl)thio)pyrido[2,3-b]pyrazin-2-yl)-6-methyl-1,3-dihydrospiro[indene-2,4′-piperidin]-1-amine] | 17 nM |  | 57 nM
9 | N[C@@H]1c2cccnc2CC12CCN(c1cnc3nc(Sc4ccnc(N5CC[C@H](CO)C5)c4Cl)ccc3n1)CC2 [Example 210, ((S)-1-(4-((2-((S)-5-amino-5,7-dihydrospiro[cyclopenta[b]pyridine-6,4′-piperidin]-1′-yl)pyrido[2,3-b]pyrazin-6-yl)thio)-3-chloropyridin-2-yl)pyrrolidin-3-yl)methanol] | 16 nM | 63 nM | 
10 | Nc1nccc(Sc2ccc3nc(N4CCC5(CC4)Cc4ccccc4[C@H]5N)cnc3n2)c1Cl [Example 76, (S)-1′-(6-((2-amino-3-chloropyridin-4-yl)thio)pyrido[2,3-b]pyrazin-2-yl)-1,3-dihydrospiro[indene-2,4′-piperidin]-1-amine] | 8 nM |  | 28 nM
11 | N[C@@H]1c2cccnc2CC12CCN(c1cnc3nc(Sc4cccnc4C(F)(F)F)ccc3n1)CC2 [Example 163, (S)-1′-(6-((2-(trifluoromethyl)pyridin-3-yl)thio)pyrido[2,3-b]pyrazin-2-yl)-5,7-dihydrospiro[cyclopenta[b]pyridine-6,4′-piperidin]-5-amine] | 30 nM | 52 nM | 
12 | C[C@@H]1OCC2(CCN(c3cnc4nc(Sc5ccnc(N)c5Cl)ccc4n3)CC2)[C@@H]1N [Example 13, (3S,4S)-8-(6-((2-amino-3-chloropyridin-4-yl)thio)pyrido[2,3-b]pyrazin-2-yl)-3-methyl-2-oxa-8-azaspiro[4,5]decan-4-amine] | 79 nM | 84 nM | 
13 | C[C@@H]1OCC2(CCN(c3cnc4nc(Sc5ccnc(N6CCC[C@H]6CO)c5Cl)ccc4n3)CC2)[C@@H]1N [Example 71, ((S)-1-(4-((2-((3S,4S)-4-amino-3-methyl-2-oxa-8-azaspiro[4.5]decan-8-yl)pyrido[2,3-b]pyrazin-6-yl)thio)-3-chloropyridin-2-yl)pyrrolidin-2-yl)methanol] | 176 nM | 120 nM | 
